The target of experiment [1] is T1, recombinant human GPR 119 receptor (Homo sapiens, UniProt Q8TDV5).
T1 construct: expressed in transfected cells
T1 sequence (Q8TDV5 1-335): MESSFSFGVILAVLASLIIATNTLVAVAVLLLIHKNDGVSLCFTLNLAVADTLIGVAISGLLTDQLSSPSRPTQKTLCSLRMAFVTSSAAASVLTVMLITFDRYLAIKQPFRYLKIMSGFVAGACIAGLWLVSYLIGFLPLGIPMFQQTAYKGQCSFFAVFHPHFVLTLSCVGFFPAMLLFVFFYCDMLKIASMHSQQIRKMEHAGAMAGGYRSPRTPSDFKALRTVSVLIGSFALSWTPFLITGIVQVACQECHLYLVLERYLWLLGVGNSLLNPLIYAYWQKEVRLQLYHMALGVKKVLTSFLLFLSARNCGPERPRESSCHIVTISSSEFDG
The experiment in a line: cAMP assay in stable cell line expressing recombinant human GPR 119 receptor. The following applies: intracellular cAMP. Type of experiment: cell-based. From the text:
cAMP assay: A stable cell line expressing recombinant human GPR 119 receptor was established and used to investigate the efficacy of the compounds of the invention based on the intracellular levels of cyclic AMP (cAMP) using commercially available cAMP kits. Compounds of the invention produced a concentration dependent increase in cAMP level and EC50 values of representative compounds were provided in table 1.
(Changes in cAMP serve as a functional read-out for many G protein-coupled receptors.)

For the next experiment, the system named is Sprague Dawley rats. The experiment in a line: Feed intake in Sprague Dawley rats. The experiment is classed as in vivo, rat. The following applies: Rattus norvegicus, cumulative feed intake vs vehicle; for inhibition in vivo at 25 mg/kg: ip, intraperitoneal; for inhibition in vivo at 50 mg/kg: oral. From the text:
In Vivo Efficacy Studies: Feed Intake in Sprague Dawley Rats:
Sprague Dawley rats of 6-8 week age are used for this experiment they are kept for acclimatization in reversed light/dark cycle for 15 days. Animals will have free access to a standard chow diet and water during acclimatization period. After 15 days reversed light/dark cycle acclimatization animals are trained for fasting induced feed intake for 5 days till they show consistent feed intake. Grouping was done based on the monitored feed intake during the training days. On treatment day each group of animals are dosed with test compound or vehicle by appropriate routes of administration (orally or intraperitoneally). Exactly 30 min. after treatment, measured amount of standard chow diet is provided and recorded as O-min feed offered. Then subsequently 2, 4, 6 and 24 hour after O-min, feed intake is measured and the cumulative feed intakes are calculated. The change in cumulative feed intake as compared to vehicle treated control at each time point is calculated for test compound.

The next experiment relates to C57/BL6 mice. The experiment in a line: Oral glucose tolerance test (OGTT) in C57/BL6 mice. Type of experiment: in vivo, mouse. The following applies: Mus musculus, 2 h, serum glucose AUC, single oral dose, glucose load 3 gm/kg, read-out: % reduction in AUC at 50 mg/kg. On the procedure: Oral Glucose Tolerance Tests (OGTT) in C57/BL6 Mice:
C57/BL6 mice of 6-8 week age are used for this experiment. Animals are grouped based on non-fasting serum glucose levels and kept on fasting for overnight (day before OGTT). On the experiment day, […], 30 min post dosing animals are bled for basal glucose level estimation and at the same time glucose load (3 gm/kg) will be administered per orally. Blood is collected at time points corresponding to 20, 40, 60 and 120 min after glucose load administration. Serum is separated for determination of glucose levels and change in area under curve for glucose is calculated and provided in table 4 as % reduction in AUC.

The mark [2] stands for this setting: 2 hour, read-out: % reduction in food in take, 2 hour.
The mark [3] stands for this setting: 4 hour, read-out: % reduction in food in take, 4 hour.
Setting [4] is: 6 hour, read-out: % reduction in food in take, 6 hour.
Setting [5] is: 24 hour, read-out: % reduction in food in take, 24 hour.

Like-named read-outs stand apart in the source and are kept apart here.

What is called EC50 is the midpoint of the concentration-response curve. As for `CC(C)c1noc(C2CCN(c3ncnc(Oc4ccc([C@H]5CO[S@@](=O)OC5)cc4)c3[N+](=O)[O-])CC2)n1` [Example 1, cis-5-(4-((6-(4-(3-isopropyl-1,2,4-oxadiazol-5-yl)piperidin-1-yl)-5-nitropyrimidin-4-yl)oxy)phenyl)-1,3,2-dioxathiane 2-oxide], in experiment [1], the EC50 was 31 nM. In addition, the inhibition in vivo at 25 mg/kg in the experiment on Sprague Dawley rats (setting [2]) was 45%; with Sprague Dawley rats (setting [3]), 24%; with Sprague Dawley rats (setting [4]) it was 8.5%; with Sprague Dawley rats (setting [5]) it was 4%. Further, the inhibition in vivo at 50 mg/kg in the experiment on C57/BL6 mice was determined as 23%.

Regarding `Cc1c(Oc2ccc([C@H]3CO[S@@](=O)OC3)cc2)ncnc1OC1CCN(c2nc(C(C)C)no2)CC1` [Example 3, cis-5-(4-((6-((1-(3-isopropyl-1,2,4-oxadiazol-5-yl)piperidin-4-yl)oxy)-5-methylpyrimidin-4-yl)oxy)phenyl)-1,3,2-dioxathiane 2-oxide], the EC50 in experiment [1] stood at 13 nM. Besides, the inhibition in vivo at 25 mg/kg in the experiment with Sprague Dawley rats (setting [2]) worked out at 34%; in the experiment with Sprague Dawley rats (setting [3]) it was 25%; in the experiment on Sprague Dawley rats (setting [4]) it was 25%; in the experiment on Sprague Dawley rats (setting [5]), 17%. Further, the inhibition in vivo at 50 mg/kg in the experiment on C57/BL6 mice is 23%.

As to `Cc1c(Oc2ccc([C@H]3CO[S@](=O)OC3)cc2)ncnc1OC1CCN(c2nc(C(C)C)no2)CC1` [Example 4, trans-5-(4-((6-((1-(3-isopropyl-1,2,4-oxadiazol-5-yl)piperidin-4-yl)oxy)-5-methylpyrimidin-4-yl)oxy)phenyl)-1,3,2-dioxathiane 2-oxide], in experiment [1], the EC50 was 11 nM. For the same molecule, the inhibition in vivo at 25 mg/kg turned out to be 40% with Sprague Dawley rats (setting [2]), 33% with Sprague Dawley rats (setting [3]) and 21% with Sprague Dawley rats (setting [4]). Also, the inhibition in vivo at 50 mg/kg came to 30% in the experiment on Sprague Dawley rats (setting [2]); 24% with Sprague Dawley rats (setting [3]); 9.5% in the experiment with Sprague Dawley rats (setting [4]); 6% with Sprague Dawley rats (setting [5]); 31% in the experiment with C57/BL6 mice.

As for `CCc1cnc(N2CCC(Oc3ncnc(Oc4ccc([C@H]5CO[S@@](=O)OC5)cc4)c3C)CC2)nc1` [Example 9, cis-5-(4-((6-((1-(5-ethylpyrimidin-2-yl)piperidin-4-yl)oxy)-5-methylpyrimidin-4-yl)oxy)phenyl)-1,3,2-dioxathiane 2-oxide], the EC50 in experiment [1] is 12 nM. For the same molecule, the inhibition in vivo at 25 mg/kg in the experiment with Sprague Dawley rats (setting [2]) is 44%; in the experiment with Sprague Dawley rats (setting [3]) it was 37%; in the experiment with Sprague Dawley rats (setting [4]) it was 30%; in the experiment with Sprague Dawley rats (setting [5]) it was 24%. In addition, the inhibition in vivo at 50 mg/kg with Sprague Dawley rats (setting [2]) amounted to 25%; in the experiment with Sprague Dawley rats (setting [3]), 12%; with Sprague Dawley rats (setting [4]) it was 6%; in the experiment with Sprague Dawley rats (setting [5]), 2%; with C57/BL6 mice it was 31%.

`CCc1cnc(N2CCC(Oc3ncnc(Oc4ccc([C@H]5CO[S@](=O)OC5)cc4)c3C)CC2)nc1` [Example 10, trans-5-(4-((6-((1-(5-ethylpyrimidin-2-yl)piperidin-4-yl)oxy)-5-methylpyrimidin-4-yl)oxy)phenyl)-1,3,2-dioxathiane 2-oxide]: in experiment [1], the concentration for a half-maximal effect (EC50) worked out at 73.6 nM. Moreover, the inhibition in vivo at 50 mg/kg in the experiment with Sprague Dawley rats (setting [2]) was 36%; with Sprague Dawley rats (setting [3]), 29%; in the experiment with Sprague Dawley rats (setting [4]) it was 15%; with Sprague Dawley rats (setting [5]) it was 15%; in the experiment with C57/BL6 mice it was 29%.

With `Cc1c(Oc2ccc([C@H]3CO[S@](=O)OC3)cc2)ncnc1OC1CCN(C(=O)OC(C)(C)C)CC1` [Example 16, trans-tert-butyl 4-((5-methyl-6-(4-(2-oxido-1,3,2-dioxathian-5-yl)phenoxy)pyrimidin-4-yl)oxy)piperidine-1-carboxylate], the half-maximal effective concentration (EC50) in experiment [1] came to 15 nM. For the same molecule, the results for the inhibition in vivo at 25 mg/kg in the experiment on Sprague Dawley rats (setting [2]), in the experiment with Sprague Dawley rats (setting [3]) and in the experiment on Sprague Dawley rats (setting [4]) were 21%, 27% and 10%, respectively. In the experiment with C57/BL6 mice, the inhibition in vivo at 50 mg/kg worked out at 34%.

On to `Cc1c(Oc2ccc([C@H]3CO[S@@](=O)OC3)cc2)ncnc1OC1CCN(C(=O)OCC(C)C)CC1` [Example 27, cis-isobutyl 4-((5-methyl-6-(4-(2-oxido-1,3,2-dioxathian-5-yl)phenoxy)pyrimidin-4-yl)oxy)piperidine-1-carboxylate], for which the EC50 in experiment [1] worked out at 27 nM. Also, the inhibition in vivo at 25 mg/kg in the experiment on Sprague Dawley rats (setting [2]) is 35%; with Sprague Dawley rats (setting [3]), 35%; in the experiment on Sprague Dawley rats (setting [4]) it was 31%; in the experiment with Sprague Dawley rats (setting [5]) it was 17%. Also, the inhibition in vivo at 50 mg/kg in the experiment on Sprague Dawley rats (setting [2]) worked out at 23%; in the experiment with Sprague Dawley rats (setting [3]) it was 20%; in the experiment with Sprague Dawley rats (setting [4]) it was 23%; with Sprague Dawley rats (setting [5]), 5%; in the experiment on C57/BL6 mice it was 30%.

For `Cc1c(Oc2ccc([C@H]3CO[S@](=O)OC3)cc2)ncnc1OC1CCN(C(=O)OCC(C)C)CC1` [Example 28, trans-isobutyl 4-((5-methyl-6-(4-(2-oxido-1,3,2-dioxathian-5-yl)phenoxy)pyrimidin-4-yl)oxy)piperidine-1-carboxylate], the EC50 in experiment [1] came out at 57 nM. Besides, the inhibition in vivo at 25 mg/kg was determined as 67% in the experiment with Sprague Dawley rats (setting [2]), 59% in the experiment with Sprague Dawley rats (setting [3]), 40% with Sprague Dawley rats (setting [4]) and 24% in the experiment on Sprague Dawley rats (setting [5]). The inhibition in vivo at 50 mg/kg with Sprague Dawley rats (setting [2]) was found to be 24%; in the experiment on Sprague Dawley rats (setting [3]), 19%; with Sprague Dawley rats (setting [4]) it was 9%; in the experiment on Sprague Dawley rats (setting [5]) it was 2%; in the experiment with C57/BL6 mice, 40%.

Turning to `CCc1cnc(N2CCC(Oc3ncnc(Oc4ccc(C[C@H]5CO[S@](=O)OC5)cc4)c3C)CC2)nc1` [Example 32, trans-5-(4-((6-((1-(5-ethylpyrimidin-2-yl)piperidin-4-yl)oxy)-5-methylpyrimidin-4-yl)oxy)benzyl)-1,3,2-dioxathiane 2-oxide], the EC50 in experiment [1] turned out to be 86 nM. For the same molecule, the inhibition in vivo at 25 mg/kg in the experiment on Sprague Dawley rats (setting [2]) came out at 50%; in the experiment on Sprague Dawley rats (setting [3]), 37%; in the experiment with Sprague Dawley rats (setting [4]), 32%; with Sprague Dawley rats (setting [5]), 18%. The inhibition in vivo at 50 mg/kg with C57/BL6 mice was determined as 41%.

For `CCOC(=O)N1CCC(Oc2ncnc(Oc3ccc([C@H]4CO[S@@](=O)OC4)cc3)c2C)CC1` [Example 33, cis-ethyl 4-((5-methyl-6-(4-(2-oxido-1,3,2-dioxathian-5-yl)phenoxy)pyrimidin-4-yl)oxy)piperidine-1-carboxylate], the 50% effective concentration (EC50) in experiment [1] amounted to 86 nM. The inhibition in vivo at 25 mg/kg with Sprague Dawley rats (setting [2]) was 70%; in the experiment on Sprague Dawley rats (setting [3]) it was 44%; in the experiment on Sprague Dawley rats (setting [4]) it was 24%; with Sprague Dawley rats (setting [5]) it was 21%. The inhibition in vivo at 50 mg/kg in the experiment with C57/BL6 mice stood at 30%.

Take `CCOC(=O)N1CCC(Oc2ncnc(Oc3ccc([C@H]4CO[S@](=O)OC4)cc3)c2C)CC1` [Example 34, trans-ethyl 4-((5-methyl-6-(4-(2-oxido-1,3,2-dioxathian-5-yl)phenoxy)pyrimidin-4-yl)oxy)piperidine-1-carboxylate]: in experiment [1], the EC50 was determined as 93 nM. For the same molecule, the inhibition in vivo at 25 mg/kg in the experiment on Sprague Dawley rats (setting [2]) stood at 45%; in the experiment with Sprague Dawley rats (setting [3]), 30%; in the experiment on Sprague Dawley rats (setting [4]) it was 19%; in the experiment with Sprague Dawley rats (setting [5]), 10%. Moreover, the inhibition in vivo at 50 mg/kg with C57/BL6 mice is 27%.
